We go through six compounds from BindingDB's records for doi:10.1016/j.bmc.2017.12.033 (University of Messina, 2018).

Assay [1] can be described thus: Inhibition of reverse transcriptase E138K mutant in HIV1 infected in human MT4 cells assessed as protection against virus induced cytotoxicity after 5 days by MTT assay. (In general: Tetrazolium dyes change colour on reduction, which living cells bring about.)
Assay [2] can be described thus: Inhibition of reverse transcriptase Y181C mutant in HIV1 infected in human MT4 cells assessed as protection against virus induced cytotoxicity after 5 days by MTT assay.
The nature of assay [3]: Inhibition of reverse transcriptase K103N mutant in HIV1 infected in human MT4 cells assessed as protection against virus induced cytotoxicity after 5 days by MTT assay.
The nature of assay [4]: Inhibition of reverse transcriptase F227L/V106A double mutant in HIV1 infected in human MT4 cells assessed as protection against virus induced cytotoxicity after 5 days by MTT assay.
Assay [5] is described as follows: Inhibition of reverse transcriptase Y188L mutant in HIV1 infected in human MT4 cells assessed as protection against virus induced cytotoxicity after 5 days by MTT assay.
Assay [6] is described as follows: Inhibition of reverse transcriptase K103N/Y181C double mutant in HIV1 infected in human MT4 cells assessed as protection against virus induced cytotoxicity after 5 days by MTT assay.
A short description of assay [7]: Inhibition of reverse transcriptase L100I mutant in HIV1 infected in human MT4 cells assessed as protection against virus induced cytotoxicity after 5 days by MTT assay.

Broadly, the EC50 is the concentration needed to bring the measured effect to its halfway point. In the case of `Cc1cc(C)cc(S(=O)(=O)n2c(SCC(=O)Nc3ccc(C(=O)O)cc3)nc3ccccc32)c1`, the EC50 in assay [1] was 1350 nM; in assay [2] it was 23600 nM; in assay [3], 11800 nM; in assay [4], > 124000 nM; in assay [5], > 124000 nM; in assay [6], > 124000 nM. In assay [7], the concentration for a half-maximal effect (EC50) was found to be 1820 nM.

Turning to `COC(=O)c1ccc(NC(=O)CSc2nc3ccccc3n2S(=O)(=O)c2cc(C)cc(C)c2)cc1`, the EC50 was 160 nM in assay [1]; > 8360 nM in assay [2]; 960 nM in assay [3]; > 8360 nM in assay [4]; > 8360 nM in assay [5]; > 8360 nM in assay [6]. The 50% effective concentration (EC50) in assay [7] was found to be 170 nM.

For `Cc1cc(C)cc(S(=O)(=O)n2c(SCC(=O)Nc3ccc(S(N)(=O)=O)cc3)nc3ccccc32)c1`, the EC50 in assay [1] is 60 nM; in assay [2], > 27200 nM; in assay [3], 670 nM; in assay [4], 1580 nM; in assay [5], 1560 nM; in assay [6] it was > 27200 nM. In addition, the EC50 in assay [7] is 73 nM.

Turning to `Cc1cc(C)cc(S(=O)(=O)n2c(OCC(=O)Nc3ccc(S(C)(=O)=O)cc3Cl)nc3ccccc32)c1`, the EC50 in assay [1] was 670 nM; in assay [2], 890 nM; in assay [3], > 33900 nM; in assay [4], 1820 nM; in assay [5], > 228000 nM; in assay [7], 290 nM.

With `Cc1ccc(NC(=O)CSc2nc3ccccc3n2S(=O)(=O)c2cc(C)cc(C)c2)cc1`, the concentration for a half-maximal effect (EC50) is 160 nM in assay [1]; > 3130 nM in assay [2]; > 3130 nM in assay [3]; > 3130 nM in assay [4]; > 3130 nM in assay [5]; > 3130 nM in assay [6]. Moreover, the EC50 in assay [7] is 240 nM.

In the case of `Cc1cc(C)cc(S(=O)(=O)n2c(SCC(=O)Nc3ccc(S(C)(=O)=O)cc3)nc3ccccc32)c1`, the 50% effective concentration (EC50) in assay [1] was 150 nM; in assay [2], > 10600 nM; in assay [3], 1190 nM; in assay [4], > 770 nM; in assay [5] it was > 10600 nM; in assay [6] it was > 10600 nM. Further, the concentration giving a half-maximal response (EC50) in assay [7] worked out at 88 nM.
